Earlier results in publication PMC3792642 (Acta Crystallographica Section D: Biological Crystallography, 2013).

Key:
MtbVKOR = conditions: ref Dutton et al., 2010; cited from earlier work
Mtb = conditions: VKOR-dependent manner; ref Dutton et al., 2010; cited from earlier work

## CC(=O)CC(c1ccccc1)c1c(O)c2ccccc2oc1=O (centres unmarked) [warfarin]
MtbVKOR
  Inhibition of MtbVKOR: inhibit MtbVKOR
Mtb
  Inhibition of growth of Mtb: inhibit growth of Mtb
